US11351268B2, “FGF21 C-terminal peptide optimization” (INDIANA UNIVERSITY RESEARCH AND TECHNOLOGY CORPORATION, priority 2016, dated 2022)
No end group written: not given here.

Columns and labels:
Klotho β (KLB) = target: T1, Klotho β (KLB) (Homo sapiens, UniProt Q86Z14); test: cell-based; format: cell-based; conditions: for Emax: Table 1, native sequence = 100% response, read-out: % max activity
T1 construct: expressed in transfected cells; host or cells: HEK 293T (ATCC), pooled Zeocin-selected cells stably expressing hKLB from pcDNA3.1(+)
T1 sequence (Q86Z14 1-1044): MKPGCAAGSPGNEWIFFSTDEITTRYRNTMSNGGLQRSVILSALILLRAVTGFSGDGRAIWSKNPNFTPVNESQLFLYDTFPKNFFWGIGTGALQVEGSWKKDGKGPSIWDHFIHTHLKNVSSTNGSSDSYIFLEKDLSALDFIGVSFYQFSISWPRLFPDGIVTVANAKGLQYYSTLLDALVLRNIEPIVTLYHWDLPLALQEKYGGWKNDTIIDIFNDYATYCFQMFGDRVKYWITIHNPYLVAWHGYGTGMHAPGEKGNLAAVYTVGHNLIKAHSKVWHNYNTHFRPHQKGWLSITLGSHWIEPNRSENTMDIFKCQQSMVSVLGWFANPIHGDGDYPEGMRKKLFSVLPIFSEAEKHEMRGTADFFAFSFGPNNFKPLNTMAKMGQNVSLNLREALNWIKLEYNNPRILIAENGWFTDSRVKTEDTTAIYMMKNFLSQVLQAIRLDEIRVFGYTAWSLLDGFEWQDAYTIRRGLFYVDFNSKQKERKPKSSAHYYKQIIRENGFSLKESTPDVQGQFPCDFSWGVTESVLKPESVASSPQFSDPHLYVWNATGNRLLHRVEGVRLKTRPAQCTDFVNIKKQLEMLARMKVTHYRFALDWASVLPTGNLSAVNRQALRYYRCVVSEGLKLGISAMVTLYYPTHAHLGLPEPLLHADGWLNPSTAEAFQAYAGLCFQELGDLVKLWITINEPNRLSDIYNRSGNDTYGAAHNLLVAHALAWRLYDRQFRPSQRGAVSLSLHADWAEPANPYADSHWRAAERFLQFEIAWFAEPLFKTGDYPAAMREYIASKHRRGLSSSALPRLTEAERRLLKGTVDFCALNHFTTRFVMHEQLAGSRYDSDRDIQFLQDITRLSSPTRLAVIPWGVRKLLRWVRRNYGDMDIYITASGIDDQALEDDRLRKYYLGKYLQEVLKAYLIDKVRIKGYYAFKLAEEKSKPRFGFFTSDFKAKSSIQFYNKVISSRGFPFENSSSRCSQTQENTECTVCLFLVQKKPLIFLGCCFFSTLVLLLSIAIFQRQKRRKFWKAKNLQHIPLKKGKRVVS
Description: (§1) Cells were cultured in 10% Fetal Bovine Serum containing DMEM High glucose GLUTAMAX® at 37 C, 95% humidity, 5% CO2. For generating the cell line with stable expression, human KLB gene was synthesized by Genscript and subcloned into pcDNA3.1(+) with ZEOCIN® resistance vector (INVITROGEN®) by NheI and NotI restriction enzyme sites. HEK 293T cells were obtained from ATCC and were transiently transfected at 80% confluency using Lipofectamine 3000 (Invitrogen). Selection for KLB-expressing cells was initiated 48 hours post-transfection in the growth media containing 100 μg/ml of ZEOCIN® (Gibco) and continued for 4 weeks with fresh media added every third day. Human KLB expression in pooled cells was confirmed by Western blot and a functional FGF21 MAPK phosphorylation assay.
(§2) 293 HEK cells expressing hKLB were plated to 90% confluency in 96 well plates coated with poly-D-Lysine. Cells were serum starved for three hours in 0.1% BSA containing media prior to stimulation with protein and/or an antagonist peptide for ten minutes at 37° C. The cell lysate was used for the detection of phospho-Erk1/2 levels by AlphaSureFire kit using the prescribed protocol. The degree of biochemical activation was recorded and analyzed using Origin software by logistic curve fitting. Tests at each concentration were done in triplicates, and the standard deviation is as shown in the graphs. The calculation of maximal activities was done keeping the FGF21 157-181 or FGF19 169-194 peptide activity as standard. The difference between the Erk1/2 phosphorylation signal for the highest (10 μM) and the lowest (0 μM) tested dose for native peptide was considered as 100% and accordingly all the other values were assigned.

FGF21 receptor = test: Erk1/2 phosphorylation assay: agonist activity in 293T HEK hKLB cells; format: cell-based, human; conditions: for EC50: read-out: EC-50; for IC50: full length FGF21 analogs, tested in triplicate
Description: as §1, §2

[1] = Table 6, derivatives of SEQ ID NO: 180
[2] = Table 5, FGF19/FGF21 chimeric peptides
[3] = FIG. 8A, substitutions at terminal position of FGF19 169-194 peptide
[4] = Table 1, alanine scan of FGF21 25mer, antagonism of native FGF21 response
[5] = FIGS. 9A/9B, full length proteins, Erk1/2 phosphorylation

PPAVGSSDPLSMVGPSQGRSPSYAS-NH2 (C-terminus assumed) [Peptide A3, PPAVGSSDPLSMVGPSQGRSPSYAS]
Emax (Klotho β (KLB)): 87.8%

PPDVASSDPLSMVGPSQGRSPSYAS-NH2 (C-terminus assumed) [Peptide A5, PPDVASSDPLSMVGPSQGRSPSYAS]
% max activity (Klotho β (KLB)): 102.5%

FGF21 159-181: 23-amino acid C-terminal fragment of FGF21 (DVGSSDPLSMVGPSQGRSPSYAS; UniProt Q9NSA1 187-209, looked up, fragment) [reference compound]
antagonism of FGF21 activity (in words) (Klotho β (KLB); 10 nM FGF21 stimulation, 293 HEK hKLB cells): weak antagonism

PPDVGSSDPLSMAGPSQGRSPSYAS-NH2 (C-terminus assumed) [Peptide A13, PPDVGSSDPLSMAGPSQGRSPSYAS]
Emax (Klotho β (KLB)): 87.9%

APDVGSSDPLSMVGPSQGRSPSYAS-NH2 (C-terminus assumed) [Peptide A1, APDVGSSDPLSMVGPSQGRSPSYAS]
Emax (Klotho β (KLB)): 100%

PPDVFSMDPFGLVGPSQGRSPSFEA-NH2 (C-terminus assumed) [Peptide 0480]
IC50 (Klotho β (KLB); [1]): 2.6 ± 0.5 nM

PLETDSMDPFGLVGPSQGRSPSFEA-NH2 (C-terminus assumed) [Peptide 0430]
IC50 (Klotho β (KLB); [2]): 15.9 ± 1.1 nM

PLETDSMDPFGLVTGLEAVRSPSFEA-NH2 (C-terminus assumed) [FGF19 A25]
IC50 (Klotho β (KLB); [3]): 10.5 nM
IC50 (Klotho β (KLB); FIG. 8B, FGF21 and FGF19 C-terminal peptides): 0.5 nM
IC50 (Klotho β (KLB); [2]): 19.1 ± 1.5 nM

PPDVGSMDPFGLVTGLEAVRSPSYAA-NH2 (C-terminus assumed) [Peptide 0433]
IC50 (Klotho β (KLB); [2]): 10.7 ± 0.7 nM

PADVGSSDPLSMVGPSQGRSPSYAS-NH2 (C-terminus assumed) [Peptide A2, PADVGSSDPLSMVGPSQGRSPSYAS]
Emax (Klotho β (KLB)): 98.5%

PPDVGSSDPLSMVGPAQGRSPSYAS-NH2 (C-terminus assumed) [Peptide A16, PPDVGSSDPLSMVGPAQGRSPSYAS]
IC50 (Klotho β (KLB); [4]): 120 nM
Emax (Klotho β (KLB)): 101%

PLETDSMDPFGLVTGLEAVRSPSFEL-NH2 (C-terminus assumed) [Peptide K194L]
IC50 (Klotho β (KLB); [3]): 17.3 nM

PPDVGASDPLSMVGPSQGRSPSYAS-NH2 (C-terminus assumed) [Peptide A6, PPDVGASDPLSMVGPSQGRSPSYAS]
Emax (Klotho β (KLB)): 89.2%

PPDVGSSDPLSMVGPSQGRSPSAAS-NH2 (C-terminus assumed) [Peptide A23, PPDVGSSDPLSMVGPSQGRSPSAAS]
% max activity (Klotho β (KLB)): 73.6%

PPDVSSMDPFGLVGPSQGRSPSFEA-NH2 (C-terminus assumed) [Peptide 0482]
IC50 (Klotho β (KLB); [1]): 3 ± 1.3 nM

PPDVGSMDPFGLVGPSQGRSPSFEA-NH2 (C-terminus assumed) [Peptide 0431]
IC50 (Klotho β (KLB); [2]): 4.1 ± 0.1 nM
IC50 (Klotho β (KLB); [1]): 7.1 ± 3 nM

PPDVGSSDPLSMVGPSAGRSPSYAS-NH2 (C-terminus assumed) [Peptide A17, PPDVGSSDPLSMVGPSAGRSPSYAS]
% max activity (Klotho β (KLB)): 99.7%
IC50 (Klotho β (KLB); [4]): 139 nM
IC50 (Klotho β (KLB); Table 2(A), FGF21 157-181 alanine mutants, ≥95% maximal activity): 130 nM

PLETDSMDPFGLVTGLEAVRSPSFEE-NH2 (C-terminus assumed) [Peptide K194E]
IC50 (Klotho β (KLB); [3]): 87.9 nM

PLETDSSDPLSMVGPSQGRSPSFEA-NH2 (C-terminus assumed) [Peptide 0432]
IC50 (Klotho β (KLB); [2]): 120 ± 6.3 nM

B1: FGF21-19 K194A: chimeric analog: core of FGF21 1-156 and an extension of the FGF19 169-194 K194A peptide (protein)
chain: HPIPDSSPLLQFGGQVRQRYLYTDDAQQTEAHLEIREDGTVGGAADQSPESLLQLKALKPGVIQILGVKTSRFLCQRPDGALYGSLHFDPEACSFRELLLEDGYNVYQSEAHGLPLHLPGNKSPHRDPAPRGPARFLPLPGLPPALPEPPGILAPQPLETDSMDPFGLVTGLEAVRSPSFEA
% maximal activity (FGF21 receptor; [5]): 84%
EC50 (FGF21 receptor; [5]): 0.5 nM
fold more potent than native FGF21 (FGF21 receptor; agonist activity of chimeric analog): approximately 5 fold

B2: FGF21 481K: analog of FGF21 481A where the C-terminal alanine is replaced with a lysine (protein)
chain: HPIPDSSPLLQFGGQVRQRYLYTDDAQQTECHLEIREDGTVGCAADQSPESLLQLKALKPGVIQILGVKTSRFLCQRPDGALYGSLHFDPEACSFREDLKEDGYNVYQSEAHGLPLHLPGDKSPHRKPAPRGPARFLPLPGLPPALPEPPGILAPQPPDVLSMDPFGLVGPSQGRSPSFEK
IC50 (FGF21 receptor): 0.56 ± 0.06 nM

B3: FGF21 481A: modified FGF21 N-terminus fused to peptide 0481 (protein, listed as Homo sapiens)
chain: HPIPDSSPLLQFGGQVRQRYLYTDDAQQTECHLEIREDGTVGCAADQSPESLLQLKALKPGVIQILGVKTSRFLCQRPDGALYGSLHFDPEACSFREDLKEDGYNVYQSEAHGLPLHLPGDKSPHRKPAPRGPARFLPLPGLPPALPEPPGILAPQPPDVLSMDPFGLVGPSQGRSPSFEA
IC50 (FGF21 receptor): 0.19 ± 0.08 nM

B4: FGF21 482A: modified FGF21 N-terminus fused to peptide 0482 (protein, listed as Homo sapiens)
chain: HPIPDSSPLLQFGGQVRQRYLYTDDAQQTECHLEIREDGTVGCAADQSPESLLQLKALKPGVIQILGVKTSRFLCQRPDGALYGSLHFDPEACSFREDLKEDGYNVYQSEAHGLPLHLPGDKSPHRKPAPRGPARFLPLPGLPPALPEPPGILAPQPPDVSSMDPFGLVGPSQGRSPSFEA
IC50 (FGF21 receptor): 0.22 ± 0.03 nM

B5: FGF21 482K: analog of FGF21 482A where the C-terminal alanine is replaced with a lysine (protein)
chain: HPIPDSSPLLQFGGQVRQRYLYTDDAQQTECHLEIREDGTVGCAADQSPESLLQLKALKPGVIQILGVKTSRFLCQRPDGALYGSLHFDPEACSFREDLKEDGYNVYQSEAHGLPLHLPGDKSPHRKPAPRGPARFLPLPGLPPALPEPPGILAPQPPDVSSMDPFGLVGPSQGRSPSFEK
IC50 (FGF21 receptor): 1.81 ± 0.18 nM

B6: FGF21 D164A: full length FGF21 with alanine at position 164 (protein)
chain: HPIPDSSPLLQFGGQVRQRYLYTDDAQQTEAHLEIREDGTVGGAADQSPESLLQLKALKPGVIQILGVKTSRFLCQRPDGALYGSLHFDPEACSFRELLLEDGYNVYQSEAHGLPLHLPGNKSPHRDPAPRGPARFLPLPGLPPALPEPPGILAPQPPDVGSSAPLSMVGPSQGRSPSYAS
EC-50 (FGF21 receptor; [5]): inactive

B7: FGF21 P171A: full length FGF21 with alanine at position 171 (protein)
chain: HPIPDSSPLLQFGGQVRQRYLYTDDAQQTEAHLEIREDGTVGGAADQSPESLLQLKALKPGVIQILGVKTSRFLCQRPDGALYGSLHFDPEACSFRELLLEDGYNVYQSEAHGLPLHLPGNKSPHRDPAPRGPARFLPLPGLPPALPEPPGILAPQPPDVGSSDPLSMVGASQGRSPSYAS
EC50 (FGF21 receptor; [5]): 4.5 nM
